Reference: patent US20180353755A1, “EPIDURAL STIMULATION FOR FACILITATION OF LOCOMOTION, POSTURE, VOLUNTARY MOVEMENT, AND RECOVERY OF AUTONOMIC, SEXUAL, VASOMOTOR, AND COGNITIVE FUNCTION AFTER NEUROLOGICAL INJURY” (NeuroRecovery Technologies, Inc., priority 2014, published 2018)

Test system: rat with complete mid-thoracic spinal cord transection
Assay: Locomotor behavior of rats one week after complete mid-thoracic spinal cord transection, drug therapy with or without epidural stimulation (FIG. 1)
Format: in vivo
Conditions: one week post-injury; for Locomotor behavior, epidural stimulation in combination with a single drug: epidural stimulation simultaneously at L2 plus S1; for Locomotor behavior after administration of drug: no epidural stimulation
Protocol: FIG. 1 summarizes recent experiments in rats that were carried out to assess the effectiveness of epidural stimulation coupled with combined drug therapy in the treatment of complete spinal cord injuries. The combination of quipazine and 8-OHDPAT with simultaneous epidural stimulation at spinal sites L2 and S1 results in robust coordinated stepping as early as one week after a complete spinal cord transection. Locomotor behavior observed from a typical rat before the injury and one week after a complete mid-thoracic spinal cord transection. The amount of body weight support provided to the rat is shown in red. One week post-injury, no spontaneous stepping activity is observed. […] Sol, soleus; TA, tibialis anterior;MTP, metatarsal-phalangeal.
FIG. 1 summarizes experiments in rats that were carried out to assess the effectiveness of epidural stimulation coupled with combined drug therapy in acute treatment of complete spinal cord injury.

Compound	Locomotor behavior, epidural stimulation in combination with a single drug	Locomotor behavior after administration of drug
CCCN(CCC)C1CCc2cccc(O)c2C1 (stereo not shown) [8-OHDPAT]	enables plantar stepping	erratic movements
c1ccc2nc(N3CCNCC3)ccc2c1 [Quipazine]	enables plantar stepping	erratic movements
